Source: BindingDB's records for doi:10.1021/jm00210a006 (1979)
Values joined by “and” are separate entries in the source; they are usually repeats but may differ in a detail not shown here. Identical values can stand only once.

Experiments:
Plasminogen = Plasminogen (Homo sapiens, UniProt P00747); experiment: Competitive inhibition of esterase activity of human plasmin assessed as assessed as decrease in p-nitrophenol production using N-Z-L-Tyr-ONp as substrate by spectrophotometric analysis
[1] = molecular target: T1, Complement C1s subcomponent (Homo sapiens, UniProt P09871); experiment: Competitive inhibition of esterase activity of human activated C1s subunit of first complement component assessed as decrease in p-nitrophenol production using N-Z-L-Tyr-ONp as substrate by spectrophotometric analysis
T1 sequence (P09871 whole entry): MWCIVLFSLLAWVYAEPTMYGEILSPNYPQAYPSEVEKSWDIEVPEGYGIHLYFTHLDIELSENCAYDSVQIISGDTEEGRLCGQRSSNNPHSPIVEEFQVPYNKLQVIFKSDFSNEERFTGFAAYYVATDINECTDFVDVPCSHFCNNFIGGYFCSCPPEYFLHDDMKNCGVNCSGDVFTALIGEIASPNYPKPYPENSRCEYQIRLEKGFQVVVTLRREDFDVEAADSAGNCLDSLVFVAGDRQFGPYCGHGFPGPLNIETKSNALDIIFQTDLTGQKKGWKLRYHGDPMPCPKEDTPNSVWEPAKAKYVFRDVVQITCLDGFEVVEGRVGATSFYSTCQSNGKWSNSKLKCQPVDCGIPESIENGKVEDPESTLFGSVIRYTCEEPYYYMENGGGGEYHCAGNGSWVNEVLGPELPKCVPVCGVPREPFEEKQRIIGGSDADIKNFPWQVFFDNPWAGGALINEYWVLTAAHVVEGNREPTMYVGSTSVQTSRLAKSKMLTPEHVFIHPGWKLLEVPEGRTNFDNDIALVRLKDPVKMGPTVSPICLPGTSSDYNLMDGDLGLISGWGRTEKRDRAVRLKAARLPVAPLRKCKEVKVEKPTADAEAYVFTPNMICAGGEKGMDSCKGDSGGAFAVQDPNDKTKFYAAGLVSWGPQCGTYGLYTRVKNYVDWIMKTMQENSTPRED

[2] = molecular target: T1, Complement C1s subcomponent; experiment: Competitive inhibition of esterase activity of human activated C1s subunit of first complement component assessed as decrease in p-nitrophenol production using N-Z-L-Lys-ONp as substrate by spectrophotometric analysis

Sequence of Plasminogen (P00747 97-580 limits assumed): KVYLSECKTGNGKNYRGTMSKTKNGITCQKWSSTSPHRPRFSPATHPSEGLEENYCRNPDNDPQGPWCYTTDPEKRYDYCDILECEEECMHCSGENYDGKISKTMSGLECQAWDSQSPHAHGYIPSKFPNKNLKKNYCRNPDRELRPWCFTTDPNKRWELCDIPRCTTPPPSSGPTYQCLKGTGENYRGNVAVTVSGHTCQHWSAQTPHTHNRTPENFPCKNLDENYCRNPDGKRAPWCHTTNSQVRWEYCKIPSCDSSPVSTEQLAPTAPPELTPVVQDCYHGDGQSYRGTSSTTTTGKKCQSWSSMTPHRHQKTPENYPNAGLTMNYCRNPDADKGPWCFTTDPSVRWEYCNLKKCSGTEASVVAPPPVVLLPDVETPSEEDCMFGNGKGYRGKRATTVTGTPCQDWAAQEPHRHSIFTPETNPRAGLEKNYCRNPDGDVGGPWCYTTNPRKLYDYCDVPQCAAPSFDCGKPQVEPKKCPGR
Sequence of Plasminogen (P00747 581-810 limits assumed): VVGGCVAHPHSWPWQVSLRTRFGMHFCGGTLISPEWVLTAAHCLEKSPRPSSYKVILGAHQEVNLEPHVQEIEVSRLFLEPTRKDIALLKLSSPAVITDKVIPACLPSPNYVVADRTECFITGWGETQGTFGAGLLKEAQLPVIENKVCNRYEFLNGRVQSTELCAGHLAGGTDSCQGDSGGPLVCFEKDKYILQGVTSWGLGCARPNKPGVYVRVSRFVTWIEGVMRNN

| SMILES | Ki [1] | also measured |
| --- | --- | --- |
| N=C(N)c1cccc(Cc2ccccc2)c1 |  | Ki (Plasminogen): 630 µM |
| N=C(N)c1cccc(N)c1 |  | Ki (Plasminogen): 125 µM and 501 µM and 100 µM and 316 µM |
| COc1cccc(C(=N)N)c1 | 160 µM |  |
| Cc1ccc(C(=N)N)cc1C | 9990 µM and 1600 µM and 4000 µM and 6300 µM |  |
| Cc1cc(C)cc(C(=N)N)c1 | 630 µM and 250 µM and 79 µM |  |
| N=C(N)c1ccc(CC(=O)C(=O)O)cc1 | 158 µM and 125 µM and 99.9 µM and 79.4 µM |  |
| N=C(N)c1cccc(CC(=O)C(=O)O)c1 |  | Ki [2]: 2510 µM |

The next lines start with results.

| Ki [1] | SMILES | also measured |
| --- | --- | --- |
| 100 µM | N=C(N)c1cccc(Br)c1 |  |
| 12.5 µM and 15.8 µM and 20 µM and 10 µM | N=C(N)c1cccc(OCCCOc2ccccc2)c1 |  |
